Reference: PubChem BioAssay (NCI)
Several values for one entry are separate records, joined by “and”; a condition that tells them apart may be missing. Equal values may be shown once.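 Grown in 96-well plates, cells were treated for 48 hours with each compound at five concentrations. Insufficient inhibition: endpoint recorded as highest concentration tested. GI50 is the concentration that inhibits growth by half. TGI: total growth inhibition.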

Assays:
Assay in all cases: growth of human tumour cells (NCI), 48 h
MCF7 breast = system: MCF7 breast
OVCAR-8 ovarian = system: OVCAR-8 ovarian
HOP-92 NSCLC = system: HOP-92 NSCLC
786-0 renal = system: 786-0 renal
SNB-75 CNS = system: SNB-75 CNS
A498 renal = system: A498 renal
NCI-H460 lung = system: NCI-H460 lung
U251 CNS = system: U251 CNS
K-562 leukemia = system: K-562 leukemia
SR leukemia = system: SR leukemia

CCOC(CN(C)C(=S)Nc1cccc2ccccc12)OCC
TGI (MCF7 breast): > 10 µM | TGI (OVCAR-8 ovarian): > 10 µM | TGI (HOP-92 NSCLC): > 10 µM | TGI (786-0 renal): > 10 µM | TGI (SNB-75 CNS): > 10 µM | TGI (A498 renal): > 10 µM | TGI (NCI-H460 lung): > 10 µM | TGI (U251 CNS): > 10 µM | TGI (K-562 leukemia): > 10 µM | TGI (SR leukemia): > 10 µM

CC[C@@]1(O)C(=O)OCc2c1cc1n(c2=O)Cc2c-1nc1cc(F)c(C)c3c1c2[C@@H](N)CC3
GI50 (MCF7 breast): < 0.01 µM | TGI (MCF7 breast): > 100 µM | GI50 (OVCAR-8 ovarian): < 0.01 µM | TGI (OVCAR-8 ovarian): > 100 µM | GI50 (HOP-92 NSCLC): < 0.01 µM | TGI (HOP-92 NSCLC): 0.307 µM | GI50 (786-0 renal): < 0.01 µM | GI50 (SNB-75 CNS): < 0.0137 µM | TGI (SNB-75 CNS): 0.101 µM | GI50 (A498 renal): < 0.01 µM | TGI (A498 renal): 0.0221 µM | GI50 (NCI-H460 lung): < 0.01 µM | TGI (NCI-H460 lung): > 33.7 µM | GI50 (U251 CNS): < 0.01 µM | TGI (U251 CNS): > 100 µM | GI50 (K-562 leukemia): < 0.0117 µM | TGI (K-562 leukemia): > 100 µM | GI50 (SR leukemia): < 0.01 µM | TGI (SR leukemia): > 100 µM

C[C@]12CC[C@@H]3c4ccc(O)c([N+](=O)[O-])c4CC[C@H]3[C@@H]1CC[C@@H]2NS(=O)(=O)c1cccc(Br)c1
GI50 (MCF7 breast): 1.8 µM | TGI (MCF7 breast): 3.93 µM | GI50 (OVCAR-8 ovarian): 2.92 µM | TGI (OVCAR-8 ovarian): 10.7 µM | GI50 (HOP-92 NSCLC): 1.53 µM | TGI (HOP-92 NSCLC): 5.03 µM | GI50 (786-0 renal): 2.7 µM | TGI (786-0 renal): 7.5 µM | GI50 (SNB-75 CNS): 1.19 µM | TGI (SNB-75 CNS): 2.7 µM | GI50 (A498 renal): 2.06 µM | TGI (A498 renal): 5.87 µM | GI50 (NCI-H460 lung): 1.81 µM | TGI (NCI-H460 lung): 3.56 µM | GI50 (U251 CNS): 1.9 µM | TGI (U251 CNS): 4.28 µM | GI50 (K-562 leukemia): 3.1 µM | TGI (K-562 leukemia): 10.7 µM | GI50 (SR leukemia): 3.09 µM | TGI (SR leukemia): 9.41 µM

CC1C(=O)OC2CC[N+]3([O-])CC=C(COC(=O)C(C)(O)C1(C)O)C23 (centres undefined)
TGI (MCF7 breast): > 100 µM | TGI (OVCAR-8 ovarian): > 100 µM | TGI (HOP-92 NSCLC): > 100 µM | TGI (786-0 renal): > 100 µM | TGI (SNB-75 CNS): > 100 µM | TGI (A498 renal): > 100 µM | TGI (NCI-H460 lung): > 100 µM | TGI (U251 CNS): > 100 µM | TGI (K-562 leukemia): > 100 µM | TGI (SR leukemia): > 100 µM

O=C(Nc1ccc(Cl)c(Cl)c1)Nc1ccccc1O
GI50 (MCF7 breast): 4.14 µM | TGI (MCF7 breast): 21.3 µM | GI50 (OVCAR-8 ovarian): 5.1 µM | TGI (OVCAR-8 ovarian): 32.4 µM | GI50 (HOP-92 NSCLC): 6.46 µM | TGI (HOP-92 NSCLC): 27.3 µM | GI50 (786-0 renal): 25.2 µM | TGI (786-0 renal): 75.1 µM | GI50 (SNB-75 CNS): 13.7 µM | TGI (SNB-75 CNS): 50.5 µM | GI50 (A498 renal): 12.2 µM | TGI (A498 renal): 27.2 µM | GI50 (NCI-H460 lung): 4.03 µM | TGI (NCI-H460 lung): 16.1 µM | GI50 (U251 CNS): 6.41 µM | TGI (U251 CNS): 25.3 µM | GI50 (K-562 leukemia): 3.4 µM | TGI (K-562 leukemia): 76.8 µM | GI50 (SR leukemia): 4.57 µM | TGI (SR leukemia): 24.8 µM

C[C@H]1CCC/C=C/[C@@H]2C[C@H](O)C[C@H]2[C@H](O)[C@@H](SCC(O)CO)CC(=O)O1 (some centres undefined)
GI50 (MCF7 breast): 20.5 µM | TGI (MCF7 breast): 47.8 µM | GI50 (OVCAR-8 ovarian): > 100 µM | TGI (OVCAR-8 ovarian): > 100 µM | GI50 (HOP-92 NSCLC): 37.7 µM | TGI (HOP-92 NSCLC): > 100 µM | GI50 (786-0 renal): 2.75 µM | TGI (786-0 renal): 15 µM | GI50 (SNB-75 CNS): 6.77 µM | TGI (SNB-75 CNS): > 100 µM | GI50 (A498 renal): 24.4 µM | TGI (A498 renal): 50.2 µM | GI50 (NCI-H460 lung): 26.3 µM | TGI (NCI-H460 lung): > 100 µM | GI50 (U251 CNS): 42.3 µM | TGI (U251 CNS): > 100 µM | GI50 (K-562 leukemia): 40.3 µM | TGI (K-562 leukemia): > 100 µM | GI50 (SR leukemia): 29 µM | TGI (SR leukemia): 96.8 µM

CCCCCCCCCCCCOC1C(C(CC(=O)NCCN2CCCC2)NS(=O)(=O)c2cc(Cl)cc(Cl)c2)OC2OC(C)(C)OC21 (centres undefined)
GI50 (MCF7 breast): 1.98 µM and 1.73 µM | TGI (MCF7 breast): 3.91 µM and 3.51 µM | GI50 (OVCAR-8 ovarian): 2.21 µM | TGI (OVCAR-8 ovarian): 4.88 µM | GI50 (HOP-92 NSCLC): 1.49 µM | TGI (HOP-92 NSCLC): 3 µM | GI50 (786-0 renal): 1.68 µM | TGI (786-0 renal): 3.27 µM | GI50 (SNB-75 CNS): 1.9 µM and 1.42 µM | TGI (SNB-75 CNS): 3.56 µM and 2.86 µM | GI50 (A498 renal): 2.4 µM | TGI (A498 renal): 4.79 µM | GI50 (NCI-H460 lung): 1.86 µM and 1.89 µM | TGI (NCI-H460 lung): 3.68 µM and 3.73 µM | GI50 (U251 CNS): 1.92 µM | TGI (U251 CNS): 3.58 µM | GI50 (K-562 leukemia): 2.34 µM | TGI (K-562 leukemia): 4.85 µM | GI50 (SR leukemia): 1.48 µM | TGI (SR leukemia): 3.83 µM

CCN(CC)CCNc1ccc2ncn3c4cc(OC)c(OC)c(=O)c4c(O)c1c23
TGI (MCF7 breast): 15.2 µM | TGI (OVCAR-8 ovarian): 27.9 µM | TGI (HOP-92 NSCLC): 24.7 µM | TGI (786-0 renal): 26.4 µM | TGI (SNB-75 CNS): 16.5 µM | TGI (A498 renal): 29.5 µM | TGI (NCI-H460 lung): 15.6 µM | TGI (U251 CNS): 28 µM | TGI (K-562 leukemia): 50.7 µM | TGI (SR leukemia): 16.2 µM
